Assay results as given in patent US20130123184A1, “METHODS FOR […] OF HUMAN FETAL HEMOGLOBIN” (National Institutes of Health, priority 2007, published 2013).
“Also recorded” adds a separate entry of the source.

Key:
[1] = tested on: human γ globin gene expression; assay: erythroid colony forming unit (CFUe) assay, real-time PCR of human γ globin gene expression; assay type: cell-based, mouse
Description: (§1) Experiments were performed with mice that are transgenic for a yeast artificial chromosome that contains the full human β-globin locus. […] However mice do have the appropriate transcription factors to interpret and express the human globin locus.
(§2) To determine if romidepsin alters human globin expression erythroid colony forming unit assays were conducted. This involved extracting fetal liver cells from the developing embryo, at a time when both γ and β globin are expressed. Cells were then cultured in a semi-solid media (methyl-cellulose) containing growth factors (SCF and Epo) with or without romidepsin. We harvested CFUe colonies at 2 days of culture (a pool of 10 from each treatment, each treatment was performed in duplicate) and performed an immediate cell lysis and cDNA amplification. The cDNA was then subjected to real-time PCR to determine levels of mouse α, human γ and human β globin gene expression. The cells were treated with a range of romidepsin concentrations from 0.185 nM to 18.5 nM, and the colony assay was performed on 6 separate occasions.
(§3) The results (0.185 nM or 1.85 nM romidepsin) are presented in FIG. 1 relative to mouse α levels, and relative to the control performed in each particular experiment. […] When the 0.185 nM and 1.85 nM data are combined there is a 130-fold increase in γ globin expression, as compared to mouse α globin expression and untreated cells.

[2] = tested on: human β globin gene expression; assay: erythroid colony forming unit (CFUe) assay, real-time PCR of human β globin gene expression; assay type: cell-based; conditions: 0.185 nM or 1.85 nM; relative to mouse α levels and control
Description: as §1, §2, §3

[3] = tested on: fetal liver cells; assay: toxicity analysis of CFUe colonies (number and size of colonies); assay type: cell-based, mouse
Description: as §2
Each colony was also analyzed for toxicity effects. […] Thus globin analysis at this dose is not presented.

[4] = tested on: fetal hemoglobin; assay: circulating fetal hemoglobin levels in phase II clinical trial patients (CTCL and PTCL); assay type: in vivo, human; conditions: at least two months, 44 patients evaluated
Description: As part of an ongoing phase II clinical trial into the effects of romidepsin in patients with cutaneous (CTCL) and peripheral (PTCL) T-cell lymphoma, the levels of circulating fetal hemoglobin were determined. From a total of 53 patients in the trial, 44 were evaluated. Romidepsin was administered as a 4 hour infusion on days 1, 8, and 15 of a 28 day cycle with a dose of 14 mg/m^2. Fetal hemoglobin levels were measured during at least two months of treatment with romidepsin. Fetal hemoglobin levels were expressed first as a percent of the patient's total hemoglobin and then corrected (by multiplying the total hemoglobin by percent fetal hemoglobin).

[5] = fold increase in fetal hemoglobin 0-2, 14 mg/m^2 4 hour infusion days 1, 8, 15 of 28 day cycle
[6] = fold increase in fetal hemoglobin 2-5, 14 mg/m^2
[7] = fold increase in fetal hemoglobin 5-10, 14 mg/m^2
[8] = fold increase in fetal hemoglobin 10-20, 14 mg/m^2
[9] = fold increase in fetal hemoglobin >2, 14 mg/m^2
[10] = fold increase in fetal hemoglobin >5, 14 mg/m^2
[11] = fold increase in fetal hemoglobin >10, 14 mg/m^2
[12] = fold increase in fetal hemoglobin >20, 14 mg/m^2

Compound: C/C=C1\NC(=O)[C@H]2CSSCC/C=C/[C@H](CC(=O)N[C@H](C(C)C)C(=O)N2)OC(=O)[C@H](C(C)C)NC1=O [romidepsin, (1S,4S,10S,16E,21R)-7-[(2Z)-ethylidene]-4,21-diisopropyl-2-oxa-12,13-dithia-5,8,20,23-tetraazabicyclo[8.7.6]tricos-16-ene-3,6,9,19,22-pentanone]
- fold increase in γ globin expression ([1]; 0.185 nM and 1.85 nM data combined, compared to mouse α globin expression and untreated cells, transgenic fetal liver CFUe colonies, 2 days of culture, mean±SEM, n=6): 130 fold
- γ globin gene expression following romidepsin treatment ([1]; 0.185 nM or 1.85 nM, relative to mouse α levels and control): increase; also recorded: up-regulation
- expression of human globin at the highest doses ([1]; highest doses of romidepsin): lower
- β globin gene expression following romidepsin treatment [2]: not affected; also recorded: no change
- total number of colonies or size of CFUe ([3]; 0.185 nM and 1.85 nM): no differences
- toxicity to the fetal liver cells ([3]; 18.5 nM, accurate data not gathered): toxic
- % of patients [4, 5]: 23%
- Number of patients [4, 5]: 10
- % of patients [4, 6]: 23%
- Number of patients [4, 6]: 10
- % of patients [4, 7]: 20%
- Number of patients [4, 7]: 9
- % of patients [4, 8]: 23%
- Number of patients [4, 8]: 10
- % of patients [4, 9]: 77%
- Number of patients [4, 9]: 34
- % of patients [4, 10]: 55%
- Number of patients [4, 10]: 24
- % of patients [4, 11]: 34%
- Number of patients [4, 11]: 15
- % of patients [4, 12]: 11%
- Number of patients [4, 12]: 5
